What all share (assay type): biochemical
The nature of test [1]: Activity against free radicals, Method A (DPPH radical, optical density at 513 nm). How it is done:
(§1) The effectiveness of the test substances against free radicals was tested by various chemical and biochemical methods: Method A A first test was carried out using diphenylpicrylhydrazyl (DPPH°) which is a relatively stable radical that forms a purple-coloured solution. The optical density (DO) at 513 nm was determined. Method B Hydroxyl radicals were released from hydrogen peroxide in the presence of iron (II) ions and EDTA and were used to oxidize desoxyribose. The oxidation product forms a pink-coloured compound with thiobarbituric acid. Its concentration corresponds to the optical density at 532 nm. A test was conducted to determine whether less desoxyribose is oxidized, i.e. whether fewer free radicals are released, in the presence of the test products. […] Method D Xanthine oxidase is an enzyme which is released through oxidative stress and catabolizes the decomposition of the purine bases adenine and guanine into uronic acid and superoxide anions. The superoxide anions dismute into hydrogen peroxide and oxygen either spontaneously or in the presence of Superoxid Dismutase. The quantity of superoxide anion can be determined by NBT reduction via the optical density at 490 nm. A test was conducted to determine whether fewer superoxide anions are generated or more anions are destroyed in the presence of the test substances. The results are set out in Table 1 and represent the EC50 values in % (w/v).
(Loss of DPPH colour is used to gauge radical scavenging.)

Test [2] is described as follows: Activity against free radicals, Method B (hydroxyl radicals from hydrogen peroxide with iron (II) ions and EDTA, desoxyribose oxidation). The settings on record: optical density at 532 nm. How it is done:
as §1, with “The results are set out in Table 1 and represent the EC50 values in % (w/v).” left out

Test [3] is described as follows: Activity against free radicals, Method C (desoxyribose oxidation in the absence of EDTA, forming inactive iron complexes). The settings on record: as Method B in the absence of EDTA. On the procedure:
as §1, with “The results are set out in Table 1 and represent the EC50 values in % (w/v).” left out

Another test has as its target Xanthine oxidase (Homo sapiens, UniProt P47989). Nature of the test: Activity against free radicals, Method D (xanthine oxidase, superoxide anion by NBT reduction). Particulars: optical density at 490 nm. On the procedure: as §1, with “substances.” for “substances. The results are set out in Table 1 and represent the EC50 values in % (w/v).”
The results are set out in Table 1 and represent the EC50 values in % (w/v).

These results are taken from patent EP2682005A1, “A dietary supplement composition” (Symrise AG, priority 2012, dated 2014).

Chain of Xanthine oxidase (P47989 whole entry, species assumed): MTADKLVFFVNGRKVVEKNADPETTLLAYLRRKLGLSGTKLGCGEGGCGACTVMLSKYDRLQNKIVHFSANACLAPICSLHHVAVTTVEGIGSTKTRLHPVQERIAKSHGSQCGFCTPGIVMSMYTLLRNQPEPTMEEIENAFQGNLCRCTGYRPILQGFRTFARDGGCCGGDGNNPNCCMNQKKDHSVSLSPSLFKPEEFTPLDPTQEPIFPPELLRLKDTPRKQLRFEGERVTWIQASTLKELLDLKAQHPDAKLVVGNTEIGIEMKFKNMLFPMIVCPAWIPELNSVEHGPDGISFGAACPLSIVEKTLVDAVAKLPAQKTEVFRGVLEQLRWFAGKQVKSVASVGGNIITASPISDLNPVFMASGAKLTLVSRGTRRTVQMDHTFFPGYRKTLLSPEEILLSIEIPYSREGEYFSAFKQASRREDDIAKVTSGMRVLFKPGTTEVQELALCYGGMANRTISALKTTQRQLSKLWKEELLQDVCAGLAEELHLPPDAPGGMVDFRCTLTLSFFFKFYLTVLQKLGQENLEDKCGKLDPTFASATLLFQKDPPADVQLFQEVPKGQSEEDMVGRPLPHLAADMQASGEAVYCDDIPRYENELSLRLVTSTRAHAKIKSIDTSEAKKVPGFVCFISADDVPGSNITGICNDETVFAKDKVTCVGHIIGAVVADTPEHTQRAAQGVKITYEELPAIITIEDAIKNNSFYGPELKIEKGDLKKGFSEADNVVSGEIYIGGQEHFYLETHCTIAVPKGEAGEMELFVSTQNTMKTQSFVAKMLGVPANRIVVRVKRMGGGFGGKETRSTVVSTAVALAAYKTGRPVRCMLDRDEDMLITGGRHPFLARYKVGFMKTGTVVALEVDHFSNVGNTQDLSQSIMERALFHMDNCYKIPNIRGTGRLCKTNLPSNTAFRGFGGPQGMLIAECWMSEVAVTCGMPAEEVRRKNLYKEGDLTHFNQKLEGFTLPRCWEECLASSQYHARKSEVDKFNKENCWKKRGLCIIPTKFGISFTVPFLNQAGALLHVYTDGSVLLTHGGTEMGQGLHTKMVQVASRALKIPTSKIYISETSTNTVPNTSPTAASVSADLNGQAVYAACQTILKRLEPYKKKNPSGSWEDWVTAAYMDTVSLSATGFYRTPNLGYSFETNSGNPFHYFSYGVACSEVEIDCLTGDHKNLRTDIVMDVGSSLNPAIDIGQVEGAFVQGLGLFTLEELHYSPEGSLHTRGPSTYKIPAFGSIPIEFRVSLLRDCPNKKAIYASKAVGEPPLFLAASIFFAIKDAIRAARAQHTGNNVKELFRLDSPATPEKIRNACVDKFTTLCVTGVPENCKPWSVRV

Take `O=C1O[C@H]([C@@H](O)CO)C(O)=C1O` [Ascorbic acid]: the “EC50, Method A” value in test [1] was 0.0013 % (w/v). For the same compound, the “EC50, Method B” value in test [2] is 0.26 % (w/v). In addition, in test [3], the “EC50, Method C” value is given as 0.9 % (w/v). The “EC50, Method D” value on Xanthine oxidase is listed as 0.59 % (w/v).
Butylhydroxytoluol: in test [1], the “EC50, Method A” value is on record as 0.0500 % (w/v). Besides, on Xanthine oxidase, the “EC50, Method D” value is “No effect”.
Consider Tocopherol, for which the “EC50, Method A” value in test [1] is listed as 0.0067 % (w/v). For the same compound, the “EC50, Method D” value at Xanthine oxidase is “No effect”.
